Columns and labels:
S. pneumoniae D39V [1] = assay: fitness (endpoint OD595 vs no drug) (fraction); higher = more growth
Summary of the method: (§1)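 At 37 °C, bacteria in TSB, LB Lennox or CY were grown in 384-well plates from a starting OD595 of 0.01. OD595 was measured every 30 min for 14 h, with the first reading used as background. Fitness is the optical density at the switch to stationary phase as a fraction of the robust mean of no-drug control wells, capped at 1.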

B. subtilis 168 [2] = assay: as above
Summary of the method: as §1

S. aureus Newman = assay: Bliss interaction score (quartile over a dose matrix) (fitness difference); higher = more antagonism (negative = synergy)
Summary of the method: (§2)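 Fitness was derived from optical density at entry into stationary phase, divided by the robust mean of the no-drug wells on the same plate. That reading was taken as OD595, and the ratio was capped at 1. Single-drug fitness was inferred from the combination data. The Bliss score, observed fitness minus the expected product of single-drug fitness, was summarised as quartiles over technical, biological and donor/recipient replicates.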

S. pneumoniae D39V [3] = assay: as above
Summary of the method: as §2

S. aureus DSM 20231 = assay: as above
Summary of the method: as §2

B. subtilis 168 [4] = assay: as above
Summary of the method: as §2
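Throughout, for Bliss interaction score (quartile over a dose matrix): first quartile when negative (synergy) and third quartile when positive (antagonism).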

C[C@H]1c2cccc(O)c2C(=O)C2=C(O)[C@]3(O)C(=O)C(C(N)=O)=C(O)[C@@H](N(C)C)[C@@H]3[C@@H](O)[C@@H]21 [Doxycycline] + C[C@H]1COc2c(N3CCN(C)CC3)c(F)cc3c(=O)c(C(=O)O)cn1c23 [Levofloxacin]
fitness, one replicate
Settings	first compound 0.003875 µg/mL	first compound 0.00775 µg/mL	first compound 0.02 µg/mL	first compound 0.031 µg/mL	first compound 0.04 µg/mL	first compound 0.062 µg/mL	first compound 0.08 µg/mL
B. subtilis 168 [2], partner 0.001 µg/mL	–	–	0.929	–	0.859	–	0.735
B. subtilis 168 [2], partner 0.0078 µg/mL	–	–	0.989	–	0.859	–	0.712
S. pneumoniae D39V [1], partner 0.2 µg/mL	0.984	0.927	–	0.822	–	0.712	–
S. pneumoniae D39V [1], partner 0.4 µg/mL	0.858	0.838	–	0.816	–	0.687	–
S. pneumoniae D39V [1], partner 0.8 µg/mL	0.581	0.62	–	0.697	–	0.595	–

Settings	fitness
B. subtilis 168 [2], first compound 0.02 µg/mL, partner 0.002 µg/mL	0.937
B. subtilis 168 [2], first compound 0.02 µg/mL, partner 0.0039 µg/mL	0.939
B. subtilis 168 [2], first compound 0.02 µg/mL, partner 0.0312 µg/mL	0.0328
B. subtilis 168 [2], first compound 0.02 µg/mL, partner 0.0625 µg/mL	0.0358
B. subtilis 168 [2], first compound 0.02 µg/mL, partner 0.125 µg/mL	0.0474
B. subtilis 168 [2], first compound 0.04 µg/mL, partner 0.002 µg/mL	0.784
B. subtilis 168 [2], first compound 0.04 µg/mL, partner 0.0039 µg/mL	0.817
B. subtilis 168 [2], first compound 0.04 µg/mL, partner 0.0312 µg/mL	0.0347
B. subtilis 168 [2], first compound 0.04 µg/mL, partner 0.0625 µg/mL	0.032
B. subtilis 168 [2], first compound 0.04 µg/mL, partner 0.125 µg/mL	0.0298
B. subtilis 168 [2], first compound 0.08 µg/mL, partner 0.002 µg/mL	0.656
B. subtilis 168 [2], first compound 0.08 µg/mL, partner 0.0039 µg/mL	0.681
B. subtilis 168 [2], first compound 0.08 µg/mL, partner 0.0312 µg/mL	0.0307
B. subtilis 168 [2], first compound 0.08 µg/mL, partner 0.0625 µg/mL	0.0405
B. subtilis 168 [2], first compound 0.08 µg/mL, partner 0.125 µg/mL	0.0329
S. pneumoniae D39V [1], first compound 0.0155 µg/mL, partner 0.1725 µg/mL	0.895
S. pneumoniae D39V [1], first compound 0.0155 µg/mL, partner 0.2 µg/mL	0.946
S. pneumoniae D39V [1], first compound 0.0155 µg/mL, partner 0.345 µg/mL	0.805
S. pneumoniae D39V [1], first compound 0.0155 µg/mL, partner 0.4 µg/mL	0.887
S. pneumoniae D39V [1], first compound 0.0155 µg/mL, partner 0.69 µg/mL	0.584
S. pneumoniae D39V [1], first compound 0.0155 µg/mL, partner 0.8 µg/mL	0.677
S. pneumoniae D39V [1], first compound 0.031 µg/mL, partner 0.1725 µg/mL	0.889
S. pneumoniae D39V [1], first compound 0.031 µg/mL, partner 0.345 µg/mL	0.795
S. pneumoniae D39V [1], first compound 0.031 µg/mL, partner 0.69 µg/mL	0.485
S. pneumoniae D39V [1], first compound 0.062 µg/mL, partner 0.1725 µg/mL	0.873
S. pneumoniae D39V [1], first compound 0.062 µg/mL, partner 0.345 µg/mL	0.775
S. pneumoniae D39V [1], first compound 0.062 µg/mL, partner 0.69 µg/mL	0.652

Settings	Bliss interaction score
B. subtilis 168 [4]	0.043
S. aureus DSM 20231	0.075
S. aureus Newman	0.0574
S. pneumoniae D39V [3]	0.0649

C[C@H]1c2cccc(O)c2C(=O)C2=C(O)[C@]3(O)C(=O)C(C(N)=O)=C(O)[C@@H](N(C)C)[C@@H]3[C@@H](O)[C@@H]21 [Doxycycline] + COc1ccc(C[C@H](N)C(=O)N[C@H]2[C@@H](O)[C@H](n3cnc4c(N(C)C)ncnc43)O[C@@H]2CO)cc1 [Puromycin]
fitness, S. pneumoniae D39V [1], one replicate
Settings	partner 1 µg/mL	partner 2 µg/mL	partner 4 µg/mL
first compound 0.003875 µg/mL	≥ 1	0.98	0.847
first compound 0.00775 µg/mL	≥ 1	0.976	0.86

Settings	fitness
B. subtilis 168 [2], first compound 0.02 µg/mL, partner 0.39 µg/mL	0.861
B. subtilis 168 [2], first compound 0.02 µg/mL, partner 0.78 µg/mL	0.858
B. subtilis 168 [2], first compound 0.02 µg/mL, partner 1.56 µg/mL	0.877
B. subtilis 168 [2], first compound 0.04 µg/mL, partner 0.39 µg/mL	0.748
B. subtilis 168 [2], first compound 0.04 µg/mL, partner 0.78 µg/mL	0.751
B. subtilis 168 [2], first compound 0.04 µg/mL, partner 1.56 µg/mL	0.761
B. subtilis 168 [2], first compound 0.08 µg/mL, partner 0.39 µg/mL	0.405
S. pneumoniae D39V [1], first compound 0.0155 µg/mL, partner 1 µg/mL	≥ 1
S. pneumoniae D39V [1], first compound 0.0155 µg/mL, partner 2 µg/mL	0.97
S. pneumoniae D39V [1], first compound 0.0155 µg/mL, partner 4 µg/mL	0.834
S. pneumoniae D39V [1], first compound 0.031 µg/mL, partner 1 µg/mL	0.857
S. pneumoniae D39V [1], first compound 0.031 µg/mL, partner 2 µg/mL	0.836
S. pneumoniae D39V [1], first compound 0.031 µg/mL, partner 4 µg/mL	0.73
S. pneumoniae D39V [1], first compound 0.062 µg/mL, partner 1 µg/mL	0.847
S. pneumoniae D39V [1], first compound 0.062 µg/mL, partner 2 µg/mL	0.786
S. pneumoniae D39V [1], first compound 0.062 µg/mL, partner 4 µg/mL	0.637

Settings	Bliss interaction score
B. subtilis 168 [4]	-0.0496
S. aureus DSM 20231	-0.0866
S. aureus Newman	-0.0507
S. pneumoniae D39V [3]	0.0767

C[C@H]1c2cccc(O)c2C(=O)C2=C(O)[C@]3(O)C(=O)C(C(N)=O)=C(O)[C@@H](N(C)C)[C@@H]3[C@@H](O)[C@@H]21 [Doxycycline] + CCC[C@@H]1C[C@@H](C(=O)N[C@@H]([C@H]2O[C@H](SC)[C@H](O)[C@@H](O)[C@H]2O)[C@@H](C)O)N(C)C1 [Lincomycin]
fitness, one replicate
Settings	first compound 0.003875 µg/mL	first compound 0.00775 µg/mL	first compound 0.02 µg/mL	first compound 0.031 µg/mL	first compound 0.04 µg/mL	first compound 0.062 µg/mL	first compound 0.08 µg/mL
B. subtilis 168 [2], partner 0.8 µg/mL	–	–	0.881	–	0.693	–	0.209
B. subtilis 168 [2], partner 1.6 µg/mL	–	–	0.792	–	0.549	–	0.153
S. pneumoniae D39V [1], partner 0.2 µg/mL	0.822	0.77	–	0.636	–	0.374	–
S. pneumoniae D39V [1], partner 0.4 µg/mL	0.748	0.711	–	0.398	–	0.146	–
S. pneumoniae D39V [1], partner 0.8 µg/mL	0.231	0.303	–	0.163	–	0.0672	–

fitness
Settings	partner 0.1 µg/mL	partner 0.2 µg/mL	partner 0.215 µg/mL	partner 0.4 µg/mL	partner 0.43 µg/mL	partner 0.8 µg/mL	partner 0.86 µg/mL
B. subtilis 168 [2], first compound 0.02 µg/mL	0.918	0.888	–	0.885	–	–	–
B. subtilis 168 [2], first compound 0.04 µg/mL	0.764	0.72	–	0.717	–	–	–
S. pneumoniae D39V [1], first compound 0.0155 µg/mL	–	0.76	0.726	0.657	0.62	0.213	0.344
S. pneumoniae D39V [1], first compound 0.031 µg/mL	–	–	0.716	–	0.625	–	0.298
S. pneumoniae D39V [1], first compound 0.062 µg/mL	–	–	0.674	–	0.481	–	0.221

Settings	Bliss interaction score
B. subtilis 168 [4]	0.0648
S. aureus DSM 20231	-0.228
S. aureus Newman	-0.0975
S. pneumoniae D39V [3]	-0.13

O=C(O)c1cn(C2CC2)c2cc(N3CCNCC3)c(F)cc2c1=O [Ciprofloxacin] + CCC[C@@H]1C[C@@H](C(=O)N[C@@H]([C@H]2O[C@H](SC)[C@H](O)[C@@H](O)[C@H]2O)[C@@H](C)O)N(C)C1 [Lincomycin]
fitness
Settings	partner 0.1 µg/mL	partner 0.2 µg/mL	partner 0.215 µg/mL	partner 0.4 µg/mL	partner 0.43 µg/mL	partner 0.8 µg/mL	partner 0.86 µg/mL
B. subtilis 168 [2], first compound 0.0098 µg/mL	0.876	0.814	–	0.9	–	–	–
B. subtilis 168 [2], first compound 0.0195 µg/mL	0.713	0.751	–	0.763	–	–	–
S. pneumoniae D39V [1], first compound 0.125 µg/mL	–	0.564	0.801	0.323	0.722	0.0204	0.469
S. pneumoniae D39V [1], first compound 0.25 µg/mL	–	–	0.789	–	0.701	–	0.517
S. pneumoniae D39V [1], first compound 0.5 µg/mL	–	0.46	0.674	0.292	0.618	0.0616	0.318

fitness, one replicate
Settings	partner 0.2 µg/mL	partner 0.4 µg/mL	partner 0.8 µg/mL	partner 1.6 µg/mL
B. subtilis 168 [2], first compound 0.0098 µg/mL	–	–	0.943	0.926
B. subtilis 168 [2], first compound 0.0195 µg/mL	–	–	0.745	0.767
B. subtilis 168 [2], first compound 0.039 µg/mL	–	–	0.486	0.674
S. pneumoniae D39V [1], first compound 0.25 µg/mL	0.404	0.256	0	–

Settings	Bliss interaction score
B. subtilis 168 [4]	0.169
S. aureus DSM 20231	0.208
S. aureus Newman	0.119
S. pneumoniae D39V [3]	0.0743

C[C@H]1c2cccc(O)c2C(=O)C2=C(O)[C@]3(O)C(=O)C(C(N)=O)=C(O)[C@@H](N(C)C)[C@@H]3[C@@H](O)[C@@H]21 [Doxycycline] + CCN(CC)CCOC(=O)c1ccc(N)cc1 [Procaine]
fitness, S. pneumoniae D39V [1], one replicate
Settings	partner 85.5 µg/mL	partner 171 µg/mL	partner 342 µg/mL
first compound 0.003875 µg/mL	≥ 1	≥ 1	≥ 1
first compound 0.00775 µg/mL	≥ 1	0.971	0.994

fitness
Settings	partner 85.5 µg/mL	partner 171 µg/mL	partner 342 µg/mL
B. subtilis 168 [2], first compound 0.02 µg/mL	0.892	0.855	0.844
B. subtilis 168 [2], first compound 0.04 µg/mL	0.742	0.707	0.7
B. subtilis 168 [2], first compound 0.08 µg/mL	–	0.363	–
S. pneumoniae D39V [1], first compound 0.0155 µg/mL	0.972	0.95	0.955
S. pneumoniae D39V [1], first compound 0.031 µg/mL	0.862	0.835	0.849
S. pneumoniae D39V [1], first compound 0.062 µg/mL	0.77	0.753	0.744

Settings	Bliss interaction score
B. subtilis 168 [4]	-0.0366
S. aureus DSM 20231	-0.0922
S. aureus Newman	0.0409
S. pneumoniae D39V [3]	0.0386

Source: the supplement of paper PMC10627819
